Source: ChEMBL document CHEMBL1150483, “4-oxygenated retinoids: unexpected chemopreventive potential for analogues originally synthesized as affinity labels” (1992)

How the values were obtained:
Mus musculus [1] = organism: Mus musculus; experiment: Ability to inhibit tumor promoter-induced ornithine decarboxylase activity in mouse skin using 17 nM of protein; assay type: functional
Mus musculus [2] = organism: Mus musculus; experiment: Ability to inhibit tumor promoter-induced ornithine decarboxylase activity in mouse skin using 1.7 nM of protein; assay type: functional

C=CC(=O)OC1CCC(C)(C)C(/C=C/C(C)=C/C=C/C(C)=C/C(=O)O)=C1C (stereo unspecified)
ODC Activity (Mus musculus [1]): 2.4 (nM of CO2) 30min-1 (mg of protein)-1 | ODC Activity (Mus musculus [2]): 3.5 (nM of CO2) 30min-1 (mg of protein)-1

CC1=C(/C=C/C(C)=C/C=C/C(C)=C/C(=O)O)C(C)(C)CCC1OC(=O)CBr (stereo unspecified)
ODC Activity (Mus musculus [1]): 2.5 (nM of CO2) 30min-1 (mg of protein)-1 | ODC Activity (Mus musculus [2]): 2.3 (nM of CO2) 30min-1 (mg of protein)-1

CC1=C(/C=C/C(C)=C/C=C/C(C)=C/C(=O)O)C(C)(C)CCC1 [TRETINOIN]
ODC Activity (Mus musculus [1]): 1.9 (nM of CO2) 30min-1 (mg of protein)-1 | ODC Activity (Mus musculus [2]): 2 (nM of CO2) 30min-1 (mg of protein)-1
